Measurements: US10647713B2 (Nimbus Lakshmi, Inc., priority 2016, dated 2020)

What follows are molecules tested against human TYK2 (JH2domain-pseudokinase) (Homo sapiens (Human), UniProt P29597) (assay: TYK2 JH2 Domain Binding Assay (KINOMEscan, DiscoveRx)). Conditions: 11-point dilution, duplicate.
Summary of the method: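 TYK2 JH2 (G556–D888)–NFkB DBD fusion, DNA-tagged, from HEK293 extracts (<0.1 nM) competed against immobilised biotinylated ligand for 1 h at room temperature, 0.9% DMSO. Bead-retained kinase quantified by qPCR; Kd from 11-point 3-fold series (top 30,000 nM, duplicate), Hill fit with slope −1.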

Chain of human TYK2 (JH2domain-pseudokinase) (P29597 556-888): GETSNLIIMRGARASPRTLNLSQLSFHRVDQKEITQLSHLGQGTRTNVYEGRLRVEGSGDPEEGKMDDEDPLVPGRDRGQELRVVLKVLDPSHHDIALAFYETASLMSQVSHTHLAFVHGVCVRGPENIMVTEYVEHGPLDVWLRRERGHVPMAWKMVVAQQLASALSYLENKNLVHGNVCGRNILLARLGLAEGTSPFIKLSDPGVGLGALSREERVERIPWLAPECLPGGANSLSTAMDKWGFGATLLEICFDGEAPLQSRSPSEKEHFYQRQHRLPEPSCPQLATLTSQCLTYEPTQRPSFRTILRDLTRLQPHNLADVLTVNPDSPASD

Row | Structure (SMILES) | Kd [pM]
1 | CN(c1cc(-c2cnn(C)c2)ccc1Nc1cc(NC(=O)[C@H]2C[C@H]2F)nc2[nH]c(C(F)F)nc12)S(C)(=O)=O [I-236, (1R, 2R)—N-(2-(difluoromethyl)-7-((4-(1-methyl-1H-pyrazol-4-yl)-2-(N-methylmethylsulfonamido)phenyl)amino)-3H-imidazo[4,5-b]pyridin-5-yl)-2-fluorocyclopropane-1-carboxamide] | 100 to 500
2 | Cn1ccc(-c2ccc(Nc3cc(NC(=O)[C@@H]4CC4(F)F)nc4[nH]c(C(F)F)nc34)c(S(C)(=O)=O)c2)n1 [I-237, (S)—N-(2-(difluoromethyl)-7-((4-(1-methyl-1H-pyrazol-3-yl)-2-(methylsulfonyl)phenyl)amino)-3H-imidazo[4,5-b]pyridin-5-yl)-2,2-difluorocyclopropane-1-carboxamide] | 500 to 1000
3 | Cn1ccc(-c2ccc(Nc3cc(NC(=O)[C@H]4CC4(F)F)nc4[nH]c(C(F)F)nc34)c(S(C)(=O)=O)c2)n1 [I-238, (R)—N-(2-(difluoromethyl)-7-((4-(1-methyl-1H-pyrazol-3-yl)-2-(methylsulfonyl)phenyl)amino)-3H-imidazo[4,5-b]pyridin-5-yl)-2,2-difluorocyclopropane-1-carboxamide] | 1000 to 10000
4 | Cc1nc2c(Nc3ccc(-c4ccn(C)n4)cc3S(C)(=O)=O)cc(NC(=O)[C@@H]3CC3(F)F)nc2[nH]1 [I-239, (S)-2,2-difluoro-N-(2-methyl-7-((4-(1-methyl-1H-pyrazol-3-yl)-2-(methylsulfonyl)phenyl)amino)-3H-imidazo[4,5-b]pyridin-5-yl)cyclopropane-1-carboxamide] | 100 to 500
5 | Cc1nc2c(Nc3ccc(-c4ccn(C)n4)cc3S(C)(=O)=O)cc(NC(=O)[C@H]3CC3(F)F)nc2[nH]1 [I-240, (R)-2,2-difluoro-N-(2-methyl-7-((4-(1-methyl-1H-pyrazol-3-yl)-2-(methylsulfonyl)phenyl)amino)-3H-imidazo[4,5-b]pyridin-5-yl)cyclopropane-1-carboxamide] | 1000 to 10000
6 | Cc1nc2c(Nc3ccc(-c4nn(C)cc4C)cc3S(C)(=O)=O)cc(NC(=O)C3CC3)nc2[nH]1 [I-241, N-(7-((4-(1,4-dimethyl-1H-pyrazol-3-yl)-2-(methylsulfonyl)phenyl)amino)-2-methyl-3H-imidazo[4,5-b]pyridin-5-yl)cyclopropanecarboxamide] | < 100
7 | CP(C)(=O)c1ccccc1Nc1cc(NC(=O)C2CC2)nc2[nH]c(C(F)F)nc12 [I-242, N-(2-(difluoromethyl)-7-((2-(dimethylphosphoryl)phenyl)amino)-3H-imidazo[4,5-b]pyridin-5-yl)cyclopropanecarboxamide] | 500 to 1000
8 | Cc1nc2c(Nc3ccccc3P(C)(C)=O)cc(NC(=O)C3CC3)nc2[nH]1 [I-243, N-(7-((2-(dimethylphosphoryl)phenyl)amino)-2-methyl-3H-imidazo[4,5-b]pyridin-5-yl)cyclopropanecarboxamide] | > 10000
9 | Cn1cnc(-c2ccc(Nc3cc(NC(=O)[C@H]4CC4(F)F)nc4[nH]c(C(F)F)nc34)c(S(C)(=O)=O)c2)c1 [I-244, (R)—N-(2-(difluoromethyl)-7-((4-(1-methyl-1H-imidazol-4-yl)-2-(methylsulfonyl)phenyl)amino)-3H-imidazo[4,5-b]pyridin-5-yl)-2,2-difluorocyclopropane-1-carboxamide] | 500 to 1000
10 | Cn1cnc(-c2ccc(Nc3cc(NC(=O)[C@@H]4CC4(F)F)nc4[nH]c(C(F)F)nc34)c(S(C)(=O)=O)c2)c1 [I-245, (S)—N-(2-(difluoromethyl)-7-((4-(1-methyl-1H-imidazol-4-yl)-2-(methylsulfonyl)phenyl)amino)-3H-imidazo[4,5-b]pyridin-5-yl)-2,2-difluorocyclopropane-1-carboxamide] | 1000 to 10000
11 | Cc1cn(C)nc1-c1ccc(Nc2cc(NC(=O)C3CC3)nc3[nH]c(C(F)F)nc23)c(S(C)(=O)=O)c1 [I-246, N-(2-(difluoromethyl)-7-((4-(1,4-dimethyl-1H-pyrazol-3-yl)-2-(methylsulfonyl)phenyl)amino)-3H-imidazo[4,5-b]pyridin-5-yl)cyclopropanecarboxamide] | < 100

The next lines start with the values.

Row | Kd [pM] | Structure (SMILES)
12 | 100 to 500 | CS(=O)(=O)c1cc([C@@H]2CCCCO2)ccc1Nc1cc(NC(=O)C2CC2)nc2[nH]c(C(F)F)nc12 [I-247, (S)—N-(2-(difluoromethyl)-7-((2-(methylsulfonyl)-4-(tetrahydro-2H-pyran-2-yl)phenyl)amino)-3H-imidazo[4,5-b]pyridin-5-yl)cyclopropanecarboxamide]
13 | < 100 | CS(=O)(=O)c1cc([C@H]2CCCCO2)ccc1Nc1cc(NC(=O)C2CC2)nc2[nH]c(C(F)F)nc12 [I-248, (R)—N-(2-(difluoromethyl)-7-((2-(methylsulfonyl)-4-(tetrahydro-2H-pyran-2-yl)phenyl)amino)-3H-imidazo[4,5-b]pyridin-5-yl)cyclopropanecarboxamide]
14 | 1000 to 10000 | Cc1nc2c(Nc3ccccc3N(C(F)F)S(C)(=O)=O)cc(Nc3cccc(C#N)n3)nc2[nH]1 [I-249, N-(2-((5-((6-cyanopyridin-2-yl)amino)-2-methyl-3H-imidazo[4,5-b]pyridin-7-yl)amino)phenyl)-N-(difluoromethyl)methanesulfonamide]
15 | < 100 | Cc1nc2c(Nc3ccc(-c4cn(C)cn4)cc3S(C)(=O)=O)cc(NC(=O)[C@@H]3C[C@@H]3F)nc2[nH]1 [I-250, (1S,2S)-2-fluoro-N-(2-methyl-7-((4-(1-methyl-1H-imidazol-4-yl)-2-(methylsulfonyl)phenyl)amino)-3H-imidazo[4,5-b]pyridin-5-yl)cyclopropane-1-carboxamide]
16 | 100 to 500 | Cc1nc2c(Nc3ccc(-c4cn(C)cn4)cc3S(C)(=O)=O)cc(NC(=O)[C@H]3C[C@H]3F)nc2[nH]1 [I-251, (1R,2R)-2-fluoro-N-(2-methyl-7-((4-(1-methyl-1H-imidazol-4-yl)-2-(methylsulfonyl)phenyl)amino)-3H-imidazo[4,5-b]pyridin-5-yl)cyclopropane-1-carboxamide]
17 | 1000 to 10000 | CS(=O)(=O)c1cc([C@H]2CCCOC2)ccc1Nc1cc(NC(=O)C2CC2)nc2[nH]c(C(F)F)nc12 [I-252, (R)—N-(2-(difluoromethyl)-7-((2-(methylsulfonyl)-4-(tetrahydro-2H-pyran-3-yl)phenyl)amino)-3H-imidazo[4,5-b]pyridin-5-yl)cyclopropanecarboxamide]
18 | 100 to 500 | CS(=O)(=O)c1cc([C@@H]2CCCOC2)ccc1Nc1cc(NC(=O)C2CC2)nc2[nH]c(C(F)F)nc12 [I-253, (S)—N-(2-(difluoromethyl)-7-((2-(methylsulfonyl)-4-(tetrahydro-2H-pyran-3-yl)phenyl)amino)-3H-imidazo[4,5-b]pyridin-5-yl)cyclopropanecarboxamide]
19 | 100 to 500 | Cc1nc2c(Nc3ccc([C@@H]4CCCOC4)cc3S(C)(=O)=O)cc(NC(=O)C3CC3)nc2[nH]1 [I-255, (S)—N-(2-methyl-7-((2-(methylsulfonyl)-4-(tetrahydro-2H-pyran-3-yl)phenyl)amino)-3H-imidazo[4,5-b]pyridin-5-yl)cyclopropanecarboxamide]
20 | 500 to 1000 | Cc1nc2c(Nc3ccc([C@H]4CCCCO4)cc3S(C)(=O)=O)cc(NC(=O)[C@H]3CC3(F)F)nc2[nH]1 [I-256, (R)-2,2-difluoro-N-(2-methyl-7-((2-(methylsulfonyl)-4-((R)-tetrahydro-2H-pyran-2-yl)phenyl)amino)-3H-imidazo[4,5-b]pyridin-5-yl)cyclopropane-1-carboxamide]
21 | 1000 to 10000 | Cc1nc2c(Nc3ccc([C@H]4CCCCO4)cc3S(C)(=O)=O)cc(NC(=O)[C@@H]3CC3(F)F)nc2[nH]1 [I-257, (S)-2,2-difluoro-N-(2-methyl-7-((2-(methylsulfonyl)-4-((R)-tetrahydro-2H-pyran-2-yl)phenyl)amino)-3H-imidazo[4,5-b]pyridin-5-yl)cyclopropane-1-carboxamide]
22 | 1000 to 10000 | CS(=O)(=O)c1cc(C(F)(F)F)ccc1Nc1cc(NC(=O)C2CC2)nc2[nH]c(C(F)F)nc12 [I-258, N-(2-(difluoromethyl)-7-((2-(methylsulfonyl)-4-(trifluoromethyl)phenyl)amino)-3H-imidazo[4,5-b]pyridin-5-yl)cyclopropanecarboxamide]
23 | 1000 to 10000 | Cc1nc2c(Nc3ccc(C(F)(F)F)cc3S(C)(=O)=O)cc(NC(=O)C3CC3)nc2[nH]1 [I-259, N-(2-methyl-7-((2-(methylsulfonyl)-4-(trifluoromethyl)phenyl)amino)-3H-imidazo[4,5-b]pyridin-5-yl)cyclopropanecarboxamide]
24 | < 100 | Cc1nc2c(Nc3ccc(-c4cncn4C)cc3S(C)(=O)=O)cc(NC(=O)[C@@H]3C[C@@H]3F)nc2[nH]1 [I-260, (1S,2S)-2-fluoro-N-(2-methyl-7-((4-(1-methyl-1H-imidazol-5-yl)-2-(methylsulfonyl)phenyl)amino)-3H-imidazo[4,5-b]pyridin-5-yl)cyclopropane-1-carboxamide]
25 | 100 to 500 | Cc1nc2c(Nc3ccc(-c4cncn4C)cc3S(C)(=O)=O)cc(NC(=O)[C@H]3C[C@H]3F)nc2[nH]1 [I-261, (1R,2R)-2-fluoro-N-(2-methyl-7-((4-(1-methyl-1H-imidazol-5-yl)-2-(methylsulfonyl)phenyl)amino)-3H-imidazo[4,5-b]pyridin-5-yl)cyclopropane-1-carboxamide]
26 | 100 to 500 | Cc1nc2c(Nc3ccc(-c4nn(C)cc4C)cc3S(C)(=O)=O)cc(NC(=O)[C@@H]3C[C@@H]3F)nc2[nH]1 [I-262, (1S,2S)—N-(7-((4-(1,4-dimethyl-1H-pyrazol-3-yl)-2-(methylsulfonyl)phenyl)amino)-2-methyl-3H-imidazo[4,5-b]pyridin-5-yl)-2-fluorocyclopropane-1-carboxamide]
27 | < 100 | Cc1nc2c(Nc3ccc(-c4nn(C)cc4C)cc3S(C)(=O)=O)cc(NC(=O)[C@H]3C[C@H]3F)nc2[nH]1 [I-263, (1R,2R)—N-(7-((4-(1,4-dimethyl-1H-pyrazol-3-yl)-2-(methylsulfonyl)phenyl)amino)-2-methyl-3H-imidazo[4,5-b]pyridin-5-yl)-2-fluorocyclopropane-1-carboxamide]
